US8778966B2, “Quinolinone derivatives as PARP and tank inhibitors” (Janssen Pharmaceutica, NV, priority 2007, dated 2014)

Experiments:
Type in all cases: cell-based, human
PC-3 cells = test: Antiproliferative activity, Alamar Blue assay, PC-3 cells; conditions: Homo sapiens, PC-3, PC3 cells; read-out: PC3 antiproliferative activity pIC50 (converted)
Description: Human prostate cancer PC-3 cells obtained from the ATCC were cultured in HAM′S F12 medium supplemented with 1 mM Sodium Pyruvate, 1.5 g/L Sodium Bicarbonate, 50 μg/ml gentamicin, non-essential amino acids and 10% fetal calf serum.
(§1) Resazurin was purchased from Aldrich (Prod. No. 199303). Potassium ferrocyanide, potassium ferricyanide, KH2PO4 and K2HPO4 were purchased from Sigma (Prod. Nos. P9387, P8131, P5655 and P8281, respectively).
(§2) Potassium Phosphate Buffer 0.1 M (PPB) was made as follows: 2.72 gram KH2PO4 and 13.86 gram K2HPO4 were dissolved in 500 ml milli-Q H2O, the pH was adjusted to pH 7.4 and the volume was brought to 1 litre with milli-Q H2O; the buffer was filter sterilised and stored at room temperature. Resazurin stock solution (PPB-A) was prepared fresh by dissolving 45 mg resazurin in 15 ml PBS. 30 mM potassium ferricyanide (PPB-B) was prepared by dissolving 0.987 gram potassium ferricyanide in 100 ml PPB. 30 mM potassium ferrocyanide (PPB-C) was prepared by dissolving 1.266 gram potassium ferrocyanide in 100 ml PPB.
(§3) Mixture of PPB-A, PPB-B and PPB-C was prepared by mixing equal volumes of the respective solutions. Resazurin work solution (herein termed “Alamar Blue” solution) was prepared by diluting said mixture 20×(vol/vol) in PPB and filter sterilising; the Alamar Blue solution could be kept at 4° C. for a maximum of 2 weeks.
(§4) For experiments in 384 wells plates the cells were seeded at a density of 4.5×10^3 cells/ml in Falcon 384-well culture plates (Life Technologies, Merelbeke, Belgium), black with clear bottom, in 45 μl culture medium. Cells were allowed to adhere to plastic for 24 hr. The tested compound was pre-diluted (1/50 in culture medium) and 5 μl pre-diluted compound was added to the wells. Following 4-day incubation, 10 μl of the Alamar Blue solution was added to each well and the cells were further incubated for 4 hrs (HCT116) or 24 hrs (PC-3) at 37° C. The fluorescence intensity was measured for each well on a Fluorescence plate reader (Fluorskan, Labsystems, 540 nm excitation and 590 nm emission)
(§5) The antiproliferative activity was calculated as percentage of remaining viable cells in treated versus control (untreated cells) conditions. Within an experiment, the result for each experimental condition is the mean of 3 replicate wells. When appropriate, the experiments were repeated to establish full concentration-response curves. When appropriate, IC50-values (concentration of the drug, needed to reduce cell growth to 50% of the control) were computed using probit analysis for graded data (Finney, D. J., Probit Analyses, 2nd Ed. Chapter 10, Graded Responses, Cambridge University Press, Cambridge 1962). Herein the effects of test compounds are expressed as pIC50 (the negative log value of the IC50-value) (see Table 2).

HCT116 cells [1] = test: Mitotic arrest assay on HCT116 cells (phospho-histone H3 Ser10); conditions: Homo sapiens, HCT-116, HCT116 cells; lowest active dose; read-out: Mitotic arrest HCT116 LAD (converted)
Text: Phosphorylation of histone H3 is tightly correlated with chromosome condensation during both mitosis and meiosis. The assay is a cellular immunosorbent assay wherein the sole antibody is labelled with a detectable conjugate. The phospho-histone H3 (ser10) antibody detects endogenous levels of histone H3 only when phosphorylated at serine 10. […] In parallel with antibody detection, the nuclei of the cells are stained with Hoechst 33342 for cell-counting. Cells are detected and analysed using the InCell Analyzer 1000 from GE Healthcare. Since both the antibody-detection as well as the Hoechst-staining are in the nucleus, the dual area object intensity algorithm is used for analysing the wells.
All compounds tested were dissolved in DMSO and further dilutions were made in culture medium. Final DMSO concentrations never exceeded 0.1% (v/v).
HCT116 cells (supplier: ATCC) (human colon carcinoma cell line) were cultivated in Mc Coy's 5 A medium (supplier: Gibco) supplemented with 10% foetal calf serum (FCS), 2 mM L-glutamine and gentamycin at 37° C. in a humidified incubator with 5% CO2.
HCT116 cells were seeded at 20.000 cells per well in a 96 well plate (black/clear bottom, poly-D-lysine coated, supplier Greiner), cultured overnight to adhere to the bottom of the plate and treated with compound for 6 hours at 37° C. in a humidified incubator. After incubation, the medium was removed and cells were fixed using 100 μl/well formaldehyde (Accustain®, Formaline solution 10% neutral buffered, contains 4% formaldehyde w/v, supplier: Sigma) was added. After incubation for 15 minutes at room temperature, the formaldehyde was removed and cells were incubated with methanol (−20° C.) for 15 minutes at room temperature. After incubation, cells were washed once with phosphate-buffered saline (PBS —CaCl2, —MgCl2, suppier: Gibco)/0.05% Tween 20. The anti-phospho-histone H3 (Ser10) Alexa Fluor 488 antibody (supplier: Cell signalling) is used for detection of the cells inmitosis. The antibody was diluted 1/50 in 5% bovine serum albumins (BSA) and 50 μl/well was used for incubation overnight at room temperature in the dark.
A 1/2000 dilution of Hoechtst 33342 (10 mg/ml, supplier: Invitrogen) was made and 100 μl/well was added for at least 30 minutes before acquiring images. The absorbance at dual wavelengths of 360/480 nm was measured using the InCell Analyzer 1000 from GE Healthcare and the results were then analyzed.
For each experiment, controls (containing no drug) and a blank incubation (containing no cells or drugs) were run in parallel. Analysis was done in triplicate. Low cell count wells were invalidated. The blank value was subtracted from all control and sample values and divided by the standard deviation of the measurements. The compounds were considered active when the obtained value (sigma) was >5. Herein the effects of test compounds are expressed as the lowest dose giving a sigma value of >5 (LAD) (see table F-2).

HCT116 cells [2] = test: Antiproliferative activity, Alamar Blue assay, HCT116 cells; conditions: Homo sapiens, HCT-116, HCT116 cells; read-out: HCT116 antiproliferative activity pIC50 (converted)
Description: Human colon carcinoma HCT116 cells obtained from the ATCC were cultured in McCoy's 5 A medium supplemented with 2 mM L-Glutamine, 50 μg/ml gentamicin and 10% heat inactivated fetal calf serum.
as §1, §2, §3, §4, §5

SMILES | IC50 (PC-3 cells) | minimal effective concentration (HCT116 cells [1]) | IC50 (HCT116 cells [2])
CCc1cc2ccc(C(C)(C#N)Cc3cc(Br)cc(Br)c3)cc2[nH]c1=O (stereo not shown) [Compound 133] | 501 nM | 0.1 µM | 251 nM
CCc1cc2ccc(C(C)(C#N)Cc3cc(C(F)(F)F)cc(C(F)(F)F)c3)cc2[nH]c1=O (stereo not shown) [Compound 131] | > 10000 nM | 3.16 µM | 6310 nM
CCc1cc2ccc(C(C)(C#N)CCOc3ccc(C)cc3)cc2[nH]c1=O (stereo not shown) [Compound 149] | 1000 nM | 0.316 µM | 631 nM
CCc1cc2ccc(C(C)(C#N)CCOc3ccc(OC)cc3)cc2[nH]c1=O (stereo not shown) [Compound 147] | 794 nM | 0.316 µM | 501 nM
CCc1cc2ccc(C(C)(C#N)Cc3c(F)cccc3F)cc2[nH]c1=O (stereo not shown) [Compound 138] | 1000 nM | 0.2 µM | 251 nM
CCc1cc2ccc(C(C)(C#N)Cc3c(Cl)cccc3Cl)cc2[nH]c1=O (stereo not shown) [Compound 135] | 1000 nM | 0.2 µM | 316 nM
CCc1cc2ccc(C(C)(C#N)Cc3cccc(Cl)c3)cc2[nH]c1=O (stereo not shown) [Compound 140] | 631 nM | 0.316 µM | 200 nM
CCc1cc2ccc(C(C)(C#N)Cc3cc(F)cc(C(F)(F)F)c3)cc2[nH]c1=O (stereo not shown) [Compound 127] | 1000 nM | 0.316 µM | 501 nM
CCc1cc2ccc(C(C)(C#N)Cc3cccc(F)c3)cc2[nH]c1=O (stereo not shown) [Compound 112] | 398 nM | 0.316 µM | 316 nM
CCc1cc2ccc(C(C)(C#N)Cc3ccccc3F)cc2[nH]c1=O (stereo not shown) [Compound 106] | 794 nM | 0.1 µM | 398 nM
CCc1cc2ccc(C(C)(C#N)Cc3cccc(OC(F)(F)F)c3)cc2[nH]c1=O (stereo not shown) [Compound 110] | 200 nM | 0.316 µM | 158 nM
CCc1cc2ccc(C(C)(C#N)CC#Cc3cccc(F)c3)cc2[nH]c1=O (stereo not shown) [Compound 184] | 3980 nM | – | 3160 nM
CCc1cc2ccc(C(C)(C#N)Cc3ccccc3Br)cc2[nH]c1=O (stereo not shown) [Compound 104] | 1000 nM | 0.316 µM | 398 nM
CCc1cc2ccc([C@](C)(C#N)C[C@@H]3CCc4cc(C)ccc4O3)cc2[nH]c1=O [Compound 251] | 1000 nM | – | 631 nM
Cc1cc2ccc([C@@](C)(C#N)[C@H]3CCc4cc(C#N)ccc43)cc2[nH]c1=O [Compound 389] | 200 nM | – | 200 nM
CCc1cc2ccc(C(C#N)(CC)CCOc3ccc(C#N)cc3)cc2[nH]c1=O (stereo not shown) [Compound 271] | 2510 nM | – | 1580 nM
Cc1cc2ccc([C@@](C)(C#N)[C@@H]3CCc4cc(C#N)ccc43)cc2[nH]c1=O [Compound 245] | 7940 nM | – | 6310 nM
